The source made the active and inactive calls. The rule behind the calls is not given here.
Experiments:
[1] = test system: A673; assay: Cytotoxicity against human A673 cells after 48 hrs by CellTiter-Glo assay; details: A673, 48 h
[2] = test system: A673; assay: Cytotoxicity against human A673 cells assessed as long term cell growth inhibition measured every 4 hrs for 120 hrs by incucyte zoom live cell analysis; assay type: functional, cell-based
[3] = biological target: T1, L-lactate dehydrogenase (Homo sapiens, UniProt V9HWB9); assay: Inhibition of LDH in human MIAPaCa2 cells assessed as reduction in lactate production preincubated for 2 hrs measured after 30 mins by high throughput fluorescence assay; assay type: cell-based
[4] = Inhibition of pig heart MDH using malic acid as substrate preincubated for 10 mins followed by substrate addition measured up to 5 mins by resorufin-based fluorescence assay; design: species or system Sus scrofa
[5] = biological target: Isocitrate dehydrogenase [NADP] cytoplasmic (Homo sapiens, UniProt O75874); assay: Inhibition of wild type IDH1 (unknown origin) using isocitrate as substrate preincubated for 30 mins followed by substrate addition in presence of NADP+ measured up to 5 mins by resorufin-based fluorescence assay
[6] = biological target: T1, L-lactate dehydrogenase; assay: Inhibition of LDH in human A673 cells assessed as reduction in lactate production preincubated for 2 hrs measured after 30 mins by high throughput fluorescence assay; assay type: cell-based
[7] = test system: MIA PaCa-2; assay: Cytotoxicity against human MIAPaCa2 cells after 48 hrs by CellTiter-Glo assay; details: MIA PaCa-2, 48 h
[8] = test system: MIA PaCa-2; assay: Cytotoxicity against human MIAPaCa2 cells assessed as long term cell growth inhibition measured every 4 hrs for 120 hrs by incucyte zoom live cell analysis; assay type: functional, cell-based
[9] = Drug level in human A673 cells by LC-MS/MS analysis; assay type: ADME, cell-based
[10] = Drug level in human MIAPaCa2 cells by LC-MS/MS analysis; assay type: ADME, cell-based; details: mia paca-2
[11] = biological target: L-lactate dehydrogenase B chain (Homo sapiens, UniProt P07195); assay: Inhibition of human erythrocytes LDHB using sodium pyruvate as substrate after 5 mins in presence of […] by diaphorase/resazurin based fluorescence assay
[12] = biological target: T2, L-lactate dehydrogenase A chain (Homo sapiens, UniProt P00338)
[13] = biological target: T2, L-lactate dehydrogenase A chain; remark: listed apart in the source
Description: (§1) Inhibition of human liver LDHA using sodium pyruvate as substrate after 5 mins in presence of NAPDH and in absence of EDTA by diaphorase/resazurin based fluorescence assay

[14] = biological target: T2, L-lactate dehydrogenase A chain; remark: listed apart in the source
Description: Inhibition of human liver LDHA using sodium pyruvate as substrate after 5 mins in presence of NAPDH and EDTA by diaphorase/resazurin based fluorescence assay

[15] = biological target: T2, L-lactate dehydrogenase A chain; remark: listed apart in the source
Description: as §1

[16] = test system: Mus musculus; assay: Clearance in CD1 mouse plasma at 2 mg/kg, iv measured over 24 hrs post dose by LC/MS/MS analysis; assay type: ADME, organism-based; details: in vivo
[17] = test system: Liver; assay: Drug metabolism in mouse liver microsomes assessed as glucuronidated metabolite formation measured over 90 mins in presence of NADPH/UDPGA; assay type: ADME, microsome
[18] = test system: Liver; assay: Drug metabolism in human liver microsomes assessed as glucuronidated metabolite formation measured over 90 mins in presence of NADPH/UDPGA; assay type: ADME, microsome
[19] = test system: Mus musculus; assay: AUClast in CD1 mouse plasma at 2 mg/kg, iv measured over 24 hrs post dose by LC/MS/MS analysis; assay type: ADME, organism-based; design: dose 2 mg/kg, time 0 - last, route intravenous; details: in vivo
[20] = test system: Mus musculus; assay: Volume of distribution at steady state in CD1 mouse plasma at 2 mg/kg, iv measured over 24 hrs post dose by LC/MS/MS analysis; assay type: ADME, organism-based; details: in vivo
[21] = test system: Mus musculus; assay: Cmax in CD1 mouse plasma at 50 mg/kg, po measured over 24 hrs post dose by LC/MS/MS analysis; assay type: ADME, organism-based; design: dose 50 mg/kg, route oral; details: in vivo
[22] = test system: Mus musculus; assay: AUClast in CD1 mouse plasma at 50 mg/kg, po measured over 24 hrs post dose by LC/MS/MS analysis; assay type: ADME, organism-based; design: dose 50 mg/kg, time 0 - last, route oral; details: in vivo
[23] = test system: Mus musculus; assay: Oral bioavailability in CD1 mouse plasma at 50 mg/kg measured over 24 hrs post dose by LC/MS/MS analysis; assay type: ADME, organism-based; details: in vivo
[24] = test system: MIA PaCa-2; assay: Cytoxicity against human MIAPaCa2 cells assessed as cell growth inhibition at 20 uM after 48 hrs by CellTiter-Glo assay; assay type: functional, cell-based

L-lactate dehydrogenase B chain, sequence (P07195 whole entry): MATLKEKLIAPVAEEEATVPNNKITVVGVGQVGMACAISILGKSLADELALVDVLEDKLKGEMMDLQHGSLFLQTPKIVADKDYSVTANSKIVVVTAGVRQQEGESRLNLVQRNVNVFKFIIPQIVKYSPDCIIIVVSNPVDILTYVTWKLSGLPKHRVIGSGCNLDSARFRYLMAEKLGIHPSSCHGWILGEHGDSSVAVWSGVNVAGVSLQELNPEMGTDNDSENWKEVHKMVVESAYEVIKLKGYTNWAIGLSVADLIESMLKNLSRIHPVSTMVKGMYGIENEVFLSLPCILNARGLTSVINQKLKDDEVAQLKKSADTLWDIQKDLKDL
Isocitrate dehydrogenase [NADP] cytoplasmic, sequence (O75874 whole entry): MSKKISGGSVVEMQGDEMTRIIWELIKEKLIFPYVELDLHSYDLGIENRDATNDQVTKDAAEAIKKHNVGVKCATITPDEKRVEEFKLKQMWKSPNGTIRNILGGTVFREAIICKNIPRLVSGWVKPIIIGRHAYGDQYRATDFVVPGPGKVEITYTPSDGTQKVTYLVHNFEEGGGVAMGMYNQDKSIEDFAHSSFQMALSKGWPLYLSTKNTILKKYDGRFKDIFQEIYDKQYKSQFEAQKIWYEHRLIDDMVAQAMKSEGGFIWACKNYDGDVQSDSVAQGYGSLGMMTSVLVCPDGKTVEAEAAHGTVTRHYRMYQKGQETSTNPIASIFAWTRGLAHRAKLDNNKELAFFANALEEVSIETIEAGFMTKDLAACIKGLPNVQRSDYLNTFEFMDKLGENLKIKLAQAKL

Compound | IC50 [1] | IC50 [4] | IC50 [5] | Drug uptake [9] | Drug uptake [10] | IC50 [11] | IC50 [13] | IC50 [14] | further results
COc1ncc(-c2ccc3c(Nc4cc(Oc5cc(F)cc(F)c5)cc(C(=O)O)c4)c(S(=O)(=O)NC4CC4)cnc3c2)c(OC)n1 | > 57 µM | 37.8 µM | > 57 µM | Active | Active | – | – | – | IC50 [2]: 0.84 µM; IC50 [3]: 12.6 µM; IC50 [6]: 14.5 µM; IC50 [7]: 28.4 µM; IC50 [8]: 1.37 µM
NS(=O)(=O)c1ccc(Cc2c(-c3ccc(F)c(F)c3)nn(-c3nc(C(=O)O)cs3)c2O)cc1 | > 57 µM | > 57 µM | > 57 µM | Active | Active | – | – | – | IC50 [7]: > 57 µM
NS(=O)(=O)c1ccc(Cc2c(-c3cccc(Br)c3)nn(-c3nc(C(=O)O)cs3)c2O)cc1 | – | – | > 57 µM | Active | Active | 1.51 µM | – | – | –
O=C(O)c1csc(-n2nc(-c3ccccc3)cc2C(F)(F)F)n1 | – | – | – | – | – | – | 22.2 µM | 28.8 µM | inhibition [3]: inactive; inhibition [6]: inactive; EC50 [12]: > 100 µM; Efficacy [15]: 40 to 60%
NS(=O)(=O)c1ccc(Cc2c(-c3cccc(-c4ccccc4)c3)nn(-c3nc(C(=O)O)cs3)c2C2CC2)cc1 | – | 42.4 µM | 33.5 µM | Active | Active | – | – | – | CL [16]: 227 L/h/kg; Drug metabolism [17]: Metabolite_Notdetected; Drug metabolism [18]: Metabolite_Notdetected; AUClast [19]: 0.26 µM·h; Vdss [20]: 5.6 L/kg; Cmax [21]: 1200 nM; AUClast [22]: 3.2 µM·h; F [23]: 49%
NS(=O)(=O)c1ccc(Cc2c(-c3ccccc3)nn(-c3nc(C(=O)O)cs3)c2-c2ccncc2)cc1 | – | > 57 µM | > 57 µM | Active | Active | 2.82 µM | 6.23 µM | 6.23 µM | –
NS(=O)(=O)c1ccc(Cc2cn(-c3nc(C(=O)O)cs3)nc2-c2ccccc2)cc1 | – | > 57 µM | > 57 µM | Active | Active | – | 0.177 µM | 0.176 µM | –
Cc1nc2ccc(NC(=O)CCNC(=O)CCCc3ccc(CC(C(=O)O)C(=O)O)cc3)cc2s1 | – | > 57 µM | > 57 µM | Active | Active | 9.2 µM | – | 1.34 µM | IC50 [2]: > 20 µM; IC50 [8]: > 20 µM; EC50 [12]: 1.6 µM
NS(=O)(=O)c1ccc(Cc2c(-c3cccc(-c4ccccc4)c3)nn(-c3nc(C(=O)O)cs3)c2CC2CC2)cc1 | – | – | 29.8 µM | Active | Active | – | – | – | CL [16]: 294 L/h/kg; growth inhibition (GI) [24]: Active; Drug metabolism [17]: Metabolite_Notdetected; Drug metabolism [18]: Metabolite_Notdetected; AUClast [19]: 0.19 µM·h; Vdss [20]: 27 L/kg; Cmax [21]: 1780 nM; AUClast [22]: 2.5 µM·h; F [23]: 50%
NS(=O)(=O)c1ccc(Cc2cn(-c3nc(C(=O)O)cs3)nc2-c2ccc(F)c(F)c2)cc1 | > 57 µM | > 57 µM | > 57 µM | Active | Active | 0.129 µM | 0.095 µM | 0.095 µM | –

— ChEMBL document CHEMBL4028893, “Discovery and Optimization of Potent, Cell-Active Pyrazole-Based Inhibitors of Lactate Dehydrogenase (LDH)” (J Med Chem, 2017)
